The text below walks through data of ChEMBL document CHEMBL1141941, “Biaryl diamides as potent melanin concentrating hormone receptor 1 antagonists” (Bioorg Med Chem Lett, 2005).

The target of assay [1] is Melanin-concentrating hormone receptor 2 (Homo sapiens, UniProt Q969V1). The assay is described as follows: Antagonist activity against human MCH2 receptor. The class given is functional.
For assay [2], the target named is Melanin-concentrating hormone receptor 1 (Homo sapiens, UniProt Q99705). The experiment in a line: Antagonist activity against human MCH1 receptor. The class given is functional.
Melanin-concentrating hormone receptor 1, sequence (Q99705 whole entry): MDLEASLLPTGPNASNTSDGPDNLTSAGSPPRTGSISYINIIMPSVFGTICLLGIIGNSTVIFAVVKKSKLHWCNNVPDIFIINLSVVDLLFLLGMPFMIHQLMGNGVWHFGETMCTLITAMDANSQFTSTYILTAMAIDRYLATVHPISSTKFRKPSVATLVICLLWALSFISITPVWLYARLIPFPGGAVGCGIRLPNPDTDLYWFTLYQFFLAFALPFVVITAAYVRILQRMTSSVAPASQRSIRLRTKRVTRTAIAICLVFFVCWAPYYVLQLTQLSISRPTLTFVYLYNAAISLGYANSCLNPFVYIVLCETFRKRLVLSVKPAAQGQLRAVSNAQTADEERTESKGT

The structures appear in SMILES notation. pKi: −log10 of the molar value. Bounds are passed on as bounds.

Melanin-concentrating hormone receptor 2, sequence (Q969V1 whole entry): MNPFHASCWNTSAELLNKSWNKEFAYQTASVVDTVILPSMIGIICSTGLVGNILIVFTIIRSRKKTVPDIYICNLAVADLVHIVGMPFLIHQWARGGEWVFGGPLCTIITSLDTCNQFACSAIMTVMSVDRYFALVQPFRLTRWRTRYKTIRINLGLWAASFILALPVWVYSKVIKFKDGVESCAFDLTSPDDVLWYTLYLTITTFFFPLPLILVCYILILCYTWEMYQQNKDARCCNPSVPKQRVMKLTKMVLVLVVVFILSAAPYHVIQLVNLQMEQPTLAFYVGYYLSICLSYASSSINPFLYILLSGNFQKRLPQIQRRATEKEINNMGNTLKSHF

Broadly, the pKi is the Ki on a negative log10 scale, so that one unit is a factor of ten. Read a low pKi as a large Ki. Turning to `N#Cc1cccc(-c2ccc(CN(CC(=O)Nc3cc(Cl)cc(Cl)c3)C(=O)CN3CCCC3)cc2)c1`, the pKi in assay [1] is less than 5.52.

In assay [1], `N#Cc1cccc(-c2ccc(CN(CC(=O)Nc3cc(Cl)cc(Cl)c3)C(=O)CN3CC[C@H](O)C3)cc2)c1` had a negative-log Ki (pKi) of less than 5.52.

With `C[C@@H](c1ccc(-c2cccc(C#N)c2)cc1)N(CC(=O)Nc1cc(Cl)cc(Cl)c1)C(=O)CN1CC[C@H](O)C1`, the pKi in assay [2] is 7.80; in assay [1] it was less than 5.52.

Consider `C[C@H](c1ccc(-c2cccc(C#N)c2)cc1)N(CC(=O)Nc1cc(Cl)cc(Cl)c1)C(=O)CN1CC[C@H](O)C1`, for which the values for the pKi in assay [2] and in assay [1] were 7.51 and less than 5.52, respectively.

As to `N#Cc1cccc(-c2ccc(CN(CCCN3CCCC3)C(=O)Nc3ccc(F)c(C(F)(F)F)c3)cc2)c1`, the negative-log Ki (pKi) in assay [2] is 7.15; in assay [1] it was less than 5.52.

In the case of `N#Cc1cccc(-c2ccc(CN(CCN3CCCC3)C(=O)Nc3cc(Cl)cc(Cl)c3)cc2)c1`, the negative logarithm of the Ki (pKi) in assay [2] was 6.82; in assay [1] it was less than 5.52.

Turning to `N#Cc1cccc(-c2ccc(CN(CCCN3CCCC3)C(=O)Nc3ccc(F)c(Cl)c3)cc2)c1`, the pKi in assay [2] was 7.32; in assay [1] it was less than 5.52.

In the case of `N#Cc1cccc(-c2ccc(CCN(CC(=O)Nc3cc(Cl)cc(Cl)c3)C(=O)CN3CCCC3)cc2)c1`, the negative-log Ki (pKi) in assay [1] was less than 5.52.

In assay [1], `N#Cc1cccc(-c2ccc(CCN(CC(=O)Nc3cc(Cl)cc(Cl)c3)C(=O)CCN3CC[C@H](O)C3)cc2)c1` showed a negative-log Ki (pKi) of less than 5.52.

For `N#Cc1cccc(-c2ccc(CN(CC(=O)Nc3cc(Cl)cc(Cl)c3)C(=O)CCN3CCCC3)cc2)c1`, in assay [1], the negative-log Ki (pKi) was less than 5.52.

`CC(C)(c1ccc(-c2cccc(C#N)c2)cc1)N(CC(=O)Nc1cc(Cl)cc(Cl)c1)C(=O)CN1CCCC1`: the negative-log Ki (pKi) is 6.88 in assay [2] and less than 5.52 in assay [1].

For `N#Cc1cccc(-c2ccc(CCN(CC(=O)Nc3cc(Cl)cc(Cl)c3)C(=O)CN3CC[C@@H](O)C3)cc2)c1`, the negative logarithm of the Ki (pKi) in assay [1] was less than 5.52.

Turning to `C[C@H](c1ccc(-c2cccc(C#N)c2)cc1)N(CC(=O)Nc1cc(Cl)cc(Cl)c1)C(=O)CCN1CC[C@H](O)C1`, the negative-log Ki (pKi) in assay [2] was 7.64; in assay [1] it was less than 5.52.

Turning to `C[C@@H](c1ccc(-c2cccc(C#N)c2)cc1)N(CC(=O)Nc1cc(Cl)cc(Cl)c1)C(=O)CCN1CC[C@H](O)C1`, the pKi in assay [2] was 7.74; in assay [1], less than 5.52.

With `N#Cc1cccc(-c2ccc(CN(CCN3CCCC3)C(=O)Nc3ccc(F)c(C(F)(F)F)c3)cc2)c1`, the negative logarithm of the Ki (pKi) in assay [2] was 6.80; in assay [1] it was less than 5.52.

Take `N#Cc1cccc(-c2ccc(CCN(CC(=O)Nc3cc(Cl)cc(Cl)c3)C(=O)CCN3CCCC3)cc2)c1`: the pKi in assay [1] was less than 5.52.

In the case of `N#Cc1cccc(-c2ccc(CCN(CC(=O)Nc3cc(Cl)cc(Cl)c3)C(=O)CCN3CC[C@@H](O)C3)cc2)c1`, the pKi in assay [1] was less than 5.52.

As for `C[C@H](c1ccc(-c2cccc(C#N)c2)cc1)N(CC(=O)Nc1cc(Cl)cc(Cl)c1)C(=O)CCCN1CC[C@H](O)C1`, the pKi in assay [2] is 7.12; in assay [1] it was less than 5.52.

As to `N#Cc1cccc(-c2ccc(CCN(CC(=O)Nc3cc(Cl)cc(Cl)c3)C(=O)CN3CC[C@H](O)C3)cc2)c1`, in assay [1], the pKi is less than 5.52.

`CC(=O)N[C@@H]1CCN(CC(=O)N(CCc2ccc(-c3cccc(C#N)c3)cc2)CC(=O)Nc2cc(Cl)cc(Cl)c2)C1` had a pKi in assay [1] of less than 5.52.

As to `N#Cc1cccc(-c2ccc(CN(CCCN3CCCC3)C(=O)Nc3cc(Cl)cc(Cl)c3)cc2)c1`, the pKi in assay [2] is 7.32; in assay [1], less than 5.52.

Turning to `N#Cc1cccc(-c2ccc(CN(CCN3CCCC3)C(=O)Nc3ccc(F)c(Cl)c3)cc2)c1`, the pKi in assay [2] was 6.54; in assay [1], less than 5.52.

Consider `N#Cc1cccc(-c2ccc(CN(CC(=O)Nc3cc(Cl)cc(Cl)c3)C(=O)CN3CC[C@@H](O)C3)cc2)c1`, for which, in assay [1], the pKi is less than 5.52.
